What was measured:
[1] = Plasma stability study, human plasma; assay type: in vitro ADME; settings: Human plasma, 1 μM, 37° C.
Summary of the method: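 Compounds (1 μM, from 0.3 mM DMSO stock) incubated at 37° C in K2 EDTA plasma, quenched at time points with acetonitrile/methanol/formic acid plus internal standard, and analysed by LC/MS/MS. Disappearance measured relative to 0-min control; t½ derived from elimination rate constant of semi-log % remaining versus time regression.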

[2] = Metabolic stability in simulated intestinal fluid (SIF), pH 6.8, with or without pancreatin; assay type: in vitro ADME; settings: 5 μM, 37° C.
Summary of the method: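 Compounds at 5 μM incubated at 37 °C in freshly made SIF pH 6.8 (NaOH/NaH2PO4/NaCl), with or without 1% pancreatin. Remaining parent measured by LC/MS/MS against 0-min control; t½ derived from elimination rate constant (−slope) of semi-log % remaining vs time.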

Row | Compound | Plasma Stability Half-Life [1] | Plasma Stability (% Parent Remaining) 0 min [1] | Plasma Stability (% Parent Remaining) 60 min [1] | Plasma Stability (% Parent Remaining) 120 min [1] | Plasma Stability (% Parent Remaining) 240 min [1] | SIF Stability (pH 6.8) Half-Life (min) ([2]; +Pancreatin (1%)) | SIF Stability (pH 6.8) 0 min ([2]; +Pancreatin (1%)) | SIF Stability (pH 6.8) 60 min ([2]; +Pancreatin (1%)) | SIF Stability (pH 6.8) 120 min ([2]; +Pancreatin (1%)) | SIF Stability (pH 6.8) 240 min ([2]; +Pancreatin (1%)) | SIF Stability (pH 6.8) Half-Life (min) ([2]; −Pancreatin) | SIF Stability (pH 6.8) 0 min ([2]; −Pancreatin) | SIF Stability (pH 6.8) 60 min ([2]; −Pancreatin) | SIF Stability (pH 6.8) 120 min ([2]; −Pancreatin) | SIF Stability (pH 6.8) 240 min ([2]; −Pancreatin)
1 | CCCCCC(=O)NC(Cc1ccc(OC(=O)N2CCN(C)CC2)cc1)C(=O)NC(C(=O)NCCCCCC(N)=O)C(C)CC (stereo not shown) [Compound A20] | 49.295 h | 100% | 83% | 87% | 90% | 86.6 min | 100% | 62% | 54% | 61% | 95.4 min | 100% | 65% | 57% | 51%
2 | CCCCCC(=O)NC(Cc1ccc(OC(=O)NCCN(C)C)cc1)C(=O)NC(C(=O)NCCCCCC(N)=O)C(C)CC (stereo not shown) [Compound A21] | 1.22 h | 100% | 59% | 33% | 11% | 3006.4 min | 100% | 95% | 97% | 93% |  |  |  |  | 
